What is called viability is a read-out of living cells in per cent, often relative to untreated cells.

Data on five compounds can be found in patent publication US9193983B2, “Assays for mutagenesis detection” (The Regents of the University of California, priority 2007, dated 2015).

Series [1] deals with Saccharomyces cerevisiae. As to conditions: cited from earlier work; for induction of DNA deletions: previous experiments.
Series [2] deals with Saccharomyces cerevisiae. As to conditions: Angeli's salt as HNO donor; cited from earlier work.
The subject of series [3] is S. cerevisiae strain RS112. Put plainly: well-based DEL assay (MTS colorimetric, 96/384-well): genotoxicity and cytotoxicity. An excerpt:
(§1) The RS112 yeast DEL assay tester strain of Saccharomyces cerevisiae contains a plasmid with an internal fragment of the HIS3 gene integrated at the genomic HIS3 locus, yielding an integrative disruption of the HIS3 gene. This disruption results in two copies of the HIS3 gene, each copy having one terminal deletion. Recombination between the two his3 deletion alleles results in reversion to HIS3^+ and growth in the absence of histidine. This recombination event leads to a 6 kb DNA deletion comprising the integrated plasmid leading to deletion (DEL) events. The assay utilizing DEL events involves overnight growth of a single colony of the RS112 strain and subsequent subculture with the presence or absence of the chemical being tested for 17 hours at 30° C. under constant shaking. Yeast are then plated onto SC medium to determine the number of survivors (individual colonies are counted) and onto SC-HIS medium to score for DEL events. The traditional DEL assay is very powerful if one is testing a limited number of chemicals but becomes impractical for screening large numbers of chemicals and chemical libraries.
(§2) For 384-well plate format, 1 μl of yeast (˜100,000 cells) was pipetted into 8 microplate wells for each compound, four of which containing 70 μl SC media and four containing 70 μl SC-HIS media; each well was supplemented with 14 μl of MTS and 5 μl of compound. For 96-well plate format, the above was consistent except media, MTS, and compound volumes were 100 μl, 20 μl, and 7 μl, respectively. Control wells were treated with water in lieu of compound. The outermost columns of the 96-well plate and outer two columns of each 384-well plate were excluded from experimentation lest edge evaporative effects alter the data. Plates were incubated at 30° C. at normal atmosphere during which yeast were grown in the presence of the tested compound and 490 nm absorbance was measured 10-18 hr later using a Molecular Devices SpectraMax M5 microplate reader (Sunnyvale, Calif.).
(§3) Survival for a given compound treatment was quantified by averaging the absorbance across the four treated wells in SC media and dividing that by the average absorbance of control wells. DEL induction was quantified by dividing the absorbance of each SC-HIS well by the corresponding paired SC well. Thus for each compound done in quadruplicate, each plate contains a set of 4 different measurements of DEL induction. For each compound, ratio of the average DEL induction in treated versus control cultures was taken as the fold-increase in DEL events (HIS^+ growth). A Student's t-test was performed on the 4 measurements of DEL induction and the same measurements recorded from control wells to determine significance of the fold-increase. It should be noted that this value of fold-increase is analyzed statistically for significance and not absolute; thus two different chemicals may have the same fold-increase but varying levels of significance. In plots and tables, data from a single experiment performed in quadruplicate is presented; all experiments were repeated independently in at least 3 separate experiments in both 96 and 384-well plate formats.

For series [4], the system named is Saccharomyces cerevisiae. In words: traditional plate-based yeast DEL assay (DNA deletions). As to conditions: 1.4 mM; background about 20 DEL events per 100,000 cells. Format: cell-based. How it is done: In one embodiment, yeast cells (Saccharomyces cerevisiae) having a disruption of the his gene as the DEL selection marker are treated with test agents in 25 ml tubes and then plated for about 48 h at 30° C. Following treatment the cells are washed, for example, with PBS, and sonicated to assure dissociation of the cells into a single-cell suspension. The cells are then plated at an appropriate dilution (see below) onto medium lacking histidine as well as standard medium containing histidine. The histidine-lacking medium is used to determine recombination frequency. Standard medium (medium containing histidine) is used to determine the overall toxicity of the test agent.

A short description of series [5]: well-based DEL assay (MTS colorimetric, 96/384-well): genotoxicity and cytotoxicity. To be noted: Saccharomyces cerevisiae.
Excerpt: as §1, §2, §3

As for `N=O` [HNO], the “induction of DNA deletions and recombination” value in the series on Saccharomyces cerevisiae [1] (Angeli's salt as HNO donor) is “potent inducer of DNA deletions and recombination”. The genotoxicity entry with Saccharomyces cerevisiae [1] (under aerobic and anaerobic conditions) was “observed”. Moreover, the “induction of point mutations” value with Saccharomyces cerevisiae [2] is “negative”.
Consider `[Cl][Cr]([Cl])[Cl]` [Cr (3), CrCl3], for which, in series [3] (0.2 mM final in well), the “Cytotoxicity (% survival)” value was determined as 110.1%, the “DEL (fold increase)” value worked out at 0.93 fold and the DEL significance entry is listed as “ns (ns—not significant (p > 0.05))”. In series [3] (0.7 mM final in well), the “Cytotoxicity (% survival)” value was found to be 85.8%, the Cytotoxicity significance entry is reported as “** (** (p < 0.01))”, the “DEL (fold increase)” value is 0.98 fold and the DEL significance result is given as “ns (ns—not significant (p > 0.05))”. For the same compound, the DEL recombination result in series [3] (1.4 mM (~222 μg/ml)) is recorded as “significant increase in DEL recombination”. Besides, in series [3] (1.4 mM final in well), the “Cytotoxicity (% survival)” value is given as 36.8%, the Cytotoxicity significance entry is on record as “*** (*** (p < 0.005))”, the “DEL (fold increase)” value came out at 1.44 fold and the DEL significance result is “*** (*** (p < 0.005))”. For the same compound, in series [3] (0.2 (~32 μg/ml) or 0.7 mM (~111 μg/ml)), the genotoxic events entry is “did not induce any genotoxic events”. Further, in series [3] (well-based format), the “lowest detectable concentration (significant genotoxicity)” value is given as 1.4 mM. Besides, the increase above background result in the series with Saccharomyces cerevisiae [4] is recorded as “approximately 13.6 cells”. Further, the “DEL events per 100,000 cells” value in the series with Saccharomyces cerevisiae [1] (1.4 mM (~222 μg/ml), plate-based assay, previously observed) is recorded as 33.6 DEL events per 100,000 cells. Besides, the “induction of DNA deletions” value with Saccharomyces cerevisiae [1] is on record as “induced DNA deletions”. For the same compound, in the series with Saccharomyces cerevisiae [1] (traditional agar plate version), the “lowest dose which induced significant genotoxicity” value is listed as 0.7 mM.
In the case of `[K+].[K+].[O]=[Cr](=[O])([O-])[O][Cr](=[O])(=[O])[O-]` [Cr (6), K2Cr2O7], in series [3] (0.2 mM final in well), the “Cytotoxicity (% survival)” value amounted to 32.1%, the Cytotoxicity significance entry is reported as “*** (*** (p < 0.005))”, the “DEL (fold increase)” value is 2.13 fold and the DEL significance entry is listed as “*** (*** (p < 0.005))”. In series [3] (0.7 mM final in well), the “Cytotoxicity (% survival)” value worked out at 9.91%, the Cytotoxicity significance entry was “*** (*** (p < 0.005))”, the “DEL (fold increase)” value is 3.78 fold and the DEL significance entry is listed as “*** (*** (p < 0.005))”. Besides, in series [3] (1.4 mM final in well), the “Cytotoxicity (% survival)” value stood at 10.8%, the Cytotoxicity significance entry was “*** (*** (p < 0.005))”, the “DEL (fold increase)” value worked out at 3.12 fold and the DEL significance entry is listed as “*** (*** (p < 0.005))”. In addition, the “induction of the DEL assay” value in series [3] (between 0.2 and 1.4 mM (~20-140 μg/ml)) was “very potent induction of the DEL assay”. Also, in series [3] (with increased dose between 0.2 and 1.4 mM (~20-140 μg/ml)), the survival entry is recorded as “severely decreased survival”. Moreover, in the series on Saccharomyces cerevisiae [1], the “induction of DNA deletions” value is reported as “induced DNA deletions”.
As for `O=P1(N(CCCl)CCCl)NCCCO1` (stereo not drawn) [Cyclophosphamide, cyclophosphamide monohydrate], in series [5], the viability at 50 μM was 109%, the viability at 100 μM was determined as 104% and the viability at 200 μM is 96.2%. In series [3] (50 μM final in well), the “DEL (fold increase)” value worked out at 0.77 fold and the DEL significance result is listed as “ns (ns—not significant (p > 0.05))”. In series [3] (100 μM final in well), the “DEL (fold increase)” value was determined as 0.74 fold and the DEL significance result was “ns (ns—not significant (p > 0.05))”. In series [3] (200 μM final in well), the Cytotoxicity significance entry is “ns (ns—not significant (p > 0.05))”, the “DEL (fold increase)” value was 0.95 fold and the DEL significance entry is given as “ns (ns—not significant (p > 0.05))”. Besides, the DEL fold-increase result in series [3] (up to 200 μM) is given as “no DEL fold-increase”.
On to `CC(=O)N[C@@H](CS)C(=O)O` [NAC, N-acetylamine], for which, in the series with Saccharomyces cerevisiae [1], the “protection against HNO induced DNA deletions” value was “protected”.
